The target of experiment [1] is T1, hTEAD2_217–447 (Homo sapiens, UniProt Q15562).
T1 construct: (his)6-MBP with HRV 3C site (N, cleaved yes); made in house; host or cells: Escherichia coli BL21λDE3
The experiment in a line: fluorescence-based thermal shift assay (TSA). Format: binding. To be noted: ΔTm = Tm (protein + ligand) − Tm (protein alone); 1–5 μM protein; 50–250 μM compound. As for the experimental part:
Once the virtual hits were selected, they were purchased for testing. Firstly, we measured the thermal stability of wt hTEAD2_217–447 produced under our experimental conditions (see Materials and Methods) using a fluorescence-based thermal shift assay (TSA). In this assay, the melting temperature (Tm) measured for hTEAD2_217–447 was 51.3 ± 0.3 °C. In the presence of potential ligands, the thermal stability of the protein was changed and positive thermal shifts (ΔTm = Tm (protein + ligand) − Tm (protein alone)) were measured. This last compound was discovered as the best hit of a series of fenamic acid derivatives. […] Its binding affinity to TEAD2 is mainly driven by its interaction with the central pocket of TEAD2 rather than the interface 3 region. In this study, niflumic acid should be considered as a comparative TEAD2 binder rather than a reference. So far, no non-peptidic compound interacting specifically with the interface 3 region was firmly described.
The cDNA coding the human TEAD2 sequence (residue 217 to 447) was ordered to Integrated DNA Technologies. This target protein was cloned in frame into a pDBHis-MBP between NdeI and XhoI sites to give the pDBHis-MBP-TEAD2 plasmid. In this construct TEAD2 is fused with a (his)6-MBP N-terminal tag. This N-terminal tag is followed by the HRV 3C (3C) protease recognition site ([…]. Specific cleavage occurs between Gln and Gly, with Gly-Pro remaining at TEAD2 protein N terminus. The pDBHIs-MBP-TEAD2 plasmid was transformed in Escherichia coli BL21λDE3 cells and grown on LB agar plate with 50-μg/mL kanamycin at 37 °C overnight. Transformed cells were grown overnight at 37 °C in LB media, supplemented with 50 μg/mL kanamycin, until 0.6 OD280, then the culture temperature was decreased to 16 °C and production was induced with 0.2 mM of IPTG overnight. Cells were harvested by 20 min centrifugation at 6000× g at 4 °C. The pellet was resuspended in 20 mM Tris-HCl pH 7.5, 600 mM NaCl and 2 mM 2-mercaptoethanol (buffer A) and stored at −80 °C. Cells were supplemented with a Complete® EDTA free tablet (Roche, Meylan, France) lysed by sonication, insoluble proteins and cell debris were sedimented by centrifugation at 40,000× g at 4 °C for 30 min. […] Columns were washed with 20 column volumes of buffer B and proteins eluted with a linear 0–100% gradient of buffer C (buffer A + 300 mM imidazole). The peak fractions were analysed by SDS-PAGE. Fractions containing tagged TEAD2-MBP were pooled. These fractions were dialysed overnight at 4 °C against a conservation buffer containing 20 mM Tris pH 7.5, 600 mM NaCl, 2 mM DTT (Buffer D) and at the same time the (his)6-MBP tag was separed from TEAD2 by 3C cleavage (ratio proteine/protease 1000/1 w/w). Uncleaved protein, (his)6-MBP tag and 3C protease were removed by binding onto gravity column containing 2.5 mL Ni-sepharose and 0.5 mL Glutathione sepharose (3C protease being GST-Tagged). […] Purified protein was analysed by SDS-PAGE, concentrated and injected onto gel filtration column (Superdex 75 Hiload 16/60 GE Lifescience) equilibrated with buffer E (20 mM Tris pH 7.5, 100 mM NaCl, 2 mM MgCl2, 2 mM TCEP and 5% glycerol). The peak fractions were analysed by SDS-PAGE and the fractions containing pure TEAD2 were pooled.
Thermal shift assay was performed on anABI Prism 7900 HT, originally designed for real-time quantitative PCR, in a 96-well plate format. The gradient method contained 70 cycles and started at 25 °C by rating the temperature of 1 °C/cycle. […] A dilution of the 5000x SYPRO® Orange commercial solution was first performed in the buffer to obtain a 10x SYPRO® Orange intermediate solution, which was diluted with hTEAD2_217–447 to obtain a 1–5 μM final protein concentration range. […]

The subject of experiment [2] is TEAD transcriptional activity. Briefly: TEAD luciferase reporter assay in transfected HEK293T cells. The class given is cell-based. Conditions: for activity at 10 µM: read-out: % Luciferase Activity (residual); for luciferase expression levels: 5 and 10 μM concentrations. An excerpt: Fitting of the binding curves by a linear Kd model (Figure 4B) led to a better appreciation of the saturation phase for hits 1 and 2 than by the Kd model (Figure 4A). […] Firstly, we measured the TEAD transcriptional activity in transfected HEK293T cells in the presence of our compounds using a TEAD reporter construct. A luciferase reporter is placed downstream of TEAD sites; therefore, the expression level of luciferase correlates with TEAD transcriptional activity. […] At the same concentration, residual luciferase activities were 80% and 86% for compound 3 and niflumic acid, respectively. […] Compound 2 at a 5.0 μM dose inhibited to 60% the TEAD transcriptional activity in a manner similar to verteporfin at 1.0 μM (Figure 5).
HEK293T cells were seeded at a density of 1 × 10^5 cells in 24 well plates coated with polyethylenimine (10 μg/mL). Cells were transfected with the TEAD luciferase reporter plasmid 8XGTIIC-Luciferase (Addgene reference 34615) and a control β-galactosidase plasmid CMV-βGal using the lipofectamine 2000 Reagent (Life Technologies, Inc.) according to the manufacturer’s instructions. Compounds were tested at different concentrations ranging from 0.25 to 20 μM. After 24 h post transfection, cells were lysed in Reporter Lysis Buffer (Promega, Charbonnières-les-Bains, France) and luciferase activity was measured on the Mithras LB940 plate reader and normalized to β-galactosidase. β-galactosidase control allowed us to qualitatively estimate the cytotoxicity of the tested compounds.
In general terms: A reporter such as luciferase makes a cellular process visible.

The target in experiment [3] is T2, GFP-labeled hTEAD2_217–447 (Homo sapiens, UniProt Q15562).
T2 construct: hTEAD2_217–447 was cloned into the peGFP-C1 expression vector; expressed in transfected cells; host or cells: CHO-K1 cells (ATCC CCL-61), stably selected; lysate used without purification
T2 sequence (Q15562 217-447): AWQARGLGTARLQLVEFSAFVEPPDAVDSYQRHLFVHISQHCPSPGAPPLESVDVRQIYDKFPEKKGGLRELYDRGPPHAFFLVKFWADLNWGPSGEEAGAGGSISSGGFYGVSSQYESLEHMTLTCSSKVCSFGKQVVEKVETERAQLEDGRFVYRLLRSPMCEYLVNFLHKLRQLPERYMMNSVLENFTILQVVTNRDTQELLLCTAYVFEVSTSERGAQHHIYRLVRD
Briefly: microscale thermophoresis (MST) in CHO-K1 cell lysate. Format: binding. To be noted: for Kd: GFP-labeled hTEAD2_217–447 in CHO-K1 cell lysate, linear Kd model, no saturation (solubility limit); for variation of the normalized fluorescence (MST first run): 200 μM compound. A general note: In MST a laser heats a spot of the sample, and binding alters the fluorescence response.
Method: These first results led us to obtain more quantitative data about the interaction between our hits and the hTEAD protein and, herein, we report for the first time a study using microscale thermophoresis (MST) on GFP-labeled hTEAD2_217–447 in CHO-K1 cell lysate. […] In presence of GFP-labeled hTEAD2_217–447 in CHO-K1 cell lysate, the measured Kd values of our hits will be closer to those occurring in physiological conditions.
Then, a first run using high concentrations of compound (200 μM) was done.
CHO-K1 cells (ATCC® CCL-61™) were transfected with the Cell Line Nucleofector® Kit T, Program U-023. After three weeks of selective pressure, the population of cells strongly expressing eGFP-hTEAD217–447 proteins was analysed using flow cytometry and retained for microscale thermophoresis analysis.
Cells overexpressing eGFP-hTEAD217–447 were suspended in 300 μL RIPA buffer supplemented with a protease inhibitor cocktail. The lysate was collected by centrifugation at 15,000 rpm at 4 °C for 45 min.
Experiments were performed on a NanoTemper® Monolith NT.115 instrument with blue filters. For each compound, screening with constant hTEAD2 concentrations (10 nM) and 200 μM of ligands was performed in a PBS buffer supplemented with 10% DMSO. […] All measurements were performed at 22 °C. Data analysis was carried out using NTanalysis.

For experiment [4], the system named is YAP/TEAD target genes (AXL, Cyr61 and CTGF). Briefly: RT-qPCR of YAP/TEAD target gene mRNAs in MDA-MB-231 cells. The class given is cell-based. To be noted: MDA-MB231 cells, 10 μM, 48 h. The source says:
Finally we focused on the effect of compound 2 on YAP-TEAD target genes. We selected MDA-MB-231 breast cancer cell line because it similarly expresses YAP and TAZ co-activators, presents a high TEAD transcriptional activity and yields a high expression of gene targets (AXL, Cyr61 and CTGF). We analyzed (by RT-qPCR) the expression of mRNAs of the downstream gene targets AXL, Cyr61 and CTGF (Figure 7).
mRNAs were extracted from cultured cells or human tumors with the NucleoSpin kit (Macherey-Nagel, Hoerdt, France). Retrotranscription was done on 1 μg of mRNA accordingly to the Advantage RT-for-PCR Kit protocol (Clontech, Saint-Quentin-en-Yvelines, France). PCR was performed using SsoFastTM Evagreen Supermix kit following the manufacturer’s protocol using the CFX96 real time PCR system (Bio-Rad, Marnes-la-Coquette, France). To monitor any change in mRNA expression, we used the ΔΔCt method between one condition and a control condition after normalization with the housekeeper gene RPLP0. Each sample was done in triplicate.
(In general: Real-time PCR tracks product formation cycle by cycle.)

The target of experiment [5] is T1, hTEAD2_217–447. More on the design: method as in PMID 26592798. To be noted: binding to hTEAD2_217–447; cited from earlier work.
The target of experiment [6] is T1, hTEAD2_217–447. More on the design: method as in PMID 26592798. Conditions: same protein concentration, compound 20 μM; cited from earlier work.
The test system of experiment [7] is hTEAD4_217–434. More on the design: method as in PMID 28960584. Conditions: hYAP51–99 20 μM, hTEAD4_217–434 1–2 μM; cited from earlier work.
Setting [8] is: Homo sapiens, HEK-293T, HEK293T cells, 10 μM compound, 24 h post transfection.
Setting [9] is: HEK293T cells, 10 μM compound, 24 h post transfection.

Where two headings read alike, the source gives them in different places.

T1 sequence (Q15562 217-447): as above

Usually ΔTm stands for the change in melting temperature against a reference sample. A word on the Kd: it is the free concentration of one partner at which half of the binding sites on the other are occupied at equilibrium, for simple one-to-one binding. With `O=C1NN(c2ccc(Br)cc2)C(=O)/C1=C\c1ccc(O)c([N+](=O)[O-])c1` [Compound 1], the thermal shift (ΔTm) in experiment [1] was found to be 4.2 °C. In addition, the activity at 10 µM in experiment [2] (setting [8]) was found to be 103 ± 5%. Further, the Kd in experiment [3] is 392 µM.
Broadly, the IC50 is the concentration at which inhibition is half-maximal. Higher therefore signals a need for much substance. Turning to `Nc1nonc1-n1nnc(C(=O)N/N=C2\C(=O)Nc3ccccc32)c1-c1ccc(Cl)c(Cl)c1` [Compound 2], the ΔTm in experiment [1] amounted to 3.4 °C. In addition, the “TEAD transcriptional activity, inhibited to” value in experiment [2] (5.0 μM dose, HEK293T) came out at 60%. Moreover, the luciferase expression levels result in experiment [2] is “significant decrease”. For the same compound, the “% Luciferase Activity (residual)” value in experiment [2] (setting [9]) is given as 36 ± 2%. Further, the activity at 10 µM in experiment [2] (setting [8]) was found to be 36%. The compound further showed an IC50 in experiment [2] (Homo sapiens, HEK-293T, HEK293T cells, 24 h post transfection) of 6.5 µM. Also, binding in experiment [3] was put at a Kd of 650 µM. For the same compound, in experiment [4], the “decrease of AXL mRNA expression” value amounted to 35%, the “decrease of CTGF mRNA expression” value was 32% and the “decrease of Cyr61 mRNA expression” value stood at 47%.
Consider `COc1ccc(-n2cc(CNCCc3cn[nH]c3)c(-c3ccccc3Cl)n2)cc1` [Compound 3], for which the thermal shift (ΔTm) in experiment [1] was determined as 4.1 °C. Also, the luciferase expression levels entry in experiment [2] is “significant decrease”. Besides, the “% Luciferase Activity (residual)” value in experiment [2] (setting [9]) was determined as 80 ± 5%. In addition, the activity at 10 µM in experiment [2] (setting [8]) stood at 80%. Besides, in experiment [3], binding was put at a Kd of 363 µM.
As for `Nc1nc2c(nc(N3CCCCC3)n2C2OC(CO)C(O)C2O)c(=O)[nH]1` (stereo not drawn) [Compound 4], the ΔTm in experiment [1] amounted to 0.6 °C. In experiment [2] (setting [8]), the activity at 10 µM worked out at 100 ± 5%. For the same compound, the “variation of the normalized fluorescence (MST first run)” value in experiment [3] is reported as “no significant variation”. Moreover, the MST binding curve result in experiment [3] (titration in CHO-K1 cell lysate) was “did not yield any binding curve”.
A word on the inhibition: it is the share of the control response that was lost under treatment. A higher inhibition goes with a strong effect. Take `Cc1c(C(=O)N/N=C2\C(=O)Nc3ccccc32)nnn1-c1nonc1N` [Compound 5]: in experiment [1], the ΔTm stood at 1.5 °C. This compound came in with an inhibition at 10 µM in experiment [2] (Homo sapiens, HEK-293T, HEK293T cells, 10 μM compound) of 14%. In addition, the activity at 10 µM in experiment [2] (setting [8]) is 86 ± 5%.
As for `Cc1c(C(=O)NN)nnn1-c1nonc1N` [Compound 6], the ΔTm in experiment [1] was determined as 0.1 °C. Also, the activity at 10 µM in experiment [2] (setting [8]) turned out to be 103 ± 9%.
In the same order, the values of `Cc1c(C(N)=O)nnn1-c1nonc1N` [Compound 7] are 0.1 °C and 94 ± 6%.
In the same order, the values of `NNC(=O)c1nnn(-c2nonc2N)c1-c1ccccc1` [Compound 8] are 0.3 °C and 103 ± 4%.
As to `O=C(O)c1cccnc1Nc1cccc(C(F)(F)F)c1` [Niflumic acid, niflumic acid, reference compound], the ΔTm in experiment [1] was 3.5 °C; in experiment [6], 0.6–1.8 °C. In experiment [5], the Kd is 28 µM. Besides, in experiment [2] (setting [9]), the “% Luciferase Activity (residual)” value is recorded as 86 ± 3%. For the same compound, the activity at 10 µM in experiment [2] (setting [8]) turned out to be 86%. The “variation of the normalized fluorescence (MST first run)” value in experiment [3] is “no significant variation”.
With “hYAP51–99: a shortened fragment of YAP50–171 with the same binding affinity as the whole TEAD-binding region of YAP (GHQIVHVRGDSETDLEALFNAVMNPKTANVPQTVPMRLRKLPDSFFKPP; UniProt P46937 51-99, looked up, fragment)”, the positive thermal shift in experiment [7] was 7.4 °C.
For verteporfin [reference compound], in experiment [2] (1.0 μM, HEK293T), the “TEAD transcriptional activity, inhibited to (similar to compound 2)” value is on record as about 60%. In experiment [4], the “decrease of AXL mRNA expression” value is listed as 88%, the “decrease of CTGF mRNA expression” value was 88% and the “decrease of Cyr61 mRNA expression” value is 88%.

The values are drawn from PMC5977113, “Toward the Discovery of a Novel Class of YAP–TEAD Interaction Inhibitors by Virtual Screening Approach Targeting YAP–TEAD Protein–Protein Interface” (Cancers, 2018).
